{"source": "ChEMBL document CHEMBL1151582", "about": "“The effect of pH on the solution structure of 1-pyrroline-2-carboxylic acid as revealed by NMR and electrospray mass spectroscopy” (Bioorg Med Chem Lett, 1993)", "key": {"[1]": {"test": "Acid dissociation constant of compound was determined (for carboxylic acid group)", "type": "ADME"}, "[2]": {"test": "Acid dissociation constant of compound was determined (for pyrrolinium group)", "type": "ADME"}}, "data": [{"compound": "O=C(O)C1=NCCC1", "values": [{"measurement": "pKa", "setting": "[1]", "value": 1.8}, {"measurement": "pKa", "setting": "[2]", "value": 6.2}]}]}
